The text below walks through data of patent publication US20230192717A1, “COMPOSITIONS AND METHODS OF MODULATING SHORT-CHAIN DEHYDROGENASE ACTIVITY” (RODEO THERAPEUTICS CORPORATION, priority 2020, published 2023).

In one data set the target is T1, recombinant 15-PGDH (Homo sapiens, UniProt P15428).
T1 sequence (P15428 1-266): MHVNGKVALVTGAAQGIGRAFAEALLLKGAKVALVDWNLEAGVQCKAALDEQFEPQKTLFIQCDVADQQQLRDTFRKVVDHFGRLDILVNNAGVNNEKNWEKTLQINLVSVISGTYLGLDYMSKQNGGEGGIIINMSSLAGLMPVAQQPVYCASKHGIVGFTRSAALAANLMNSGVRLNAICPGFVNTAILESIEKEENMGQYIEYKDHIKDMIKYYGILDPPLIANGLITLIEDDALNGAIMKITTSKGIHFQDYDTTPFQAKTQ
As to the kind of experiment: inhibition of enzymatic activity of recombinant 15-PGDH in vitro. Format: biochemical. To be noted: recombinant human 15-PGDH. The text has this:
The Recombinant 15-PGDH is human unless otherwise specified.

The next data set addresses T2, CYP 2D6 (Homo sapiens, UniProt P10635).
T2 construct: pooled human liver microsomes (Corning, Xenotech, or other qualified vendors; pooled from multiple donors); tissue Corning, Xenotech, or other qualified vendors; host or cells: pooled human liver microsomes
The data set is described as follows: microsomal CYP inhibition, 2D6. The class given is in vitro ADME. To be noted: human liver microsomes 0.2 mg/ml, substrate Dextromethorphan. On the procedure: (§1) CYP450 enzymatic activities was determined using 5in1 marker substrate cocktail. For each reaction, enzyme activities in the presence of the test compound at 8 concentrations (0, 0.05, 0.15, 0.5, 1.5, 5.0, 15.0, or 50.0 μM) were measured in singlet (n=1). A known inhibitor for each isoform, tested at a single concentration (3.0 μM) in duplicate (n=2), was included as positive control. Incubation mixture containing pooled human liver microsomes (Corning, Xenotech, or other qualified vendors; pooled from multiple donors) at 0.2 mg/ml, marker substrates and standard inhibitors (listed in the following table) or the test compound was warm up at 37° C. for 10 minutes. The reactions were initiated by the addition of the NADPH (1.0 mM). […] After the mixture was incubated at 37° C. for 10 minutes, ice cold acetonitrile containing the internal standard (IS) was added to terminate the reactions. The metabolites generated from the marker substrates were measured by LC-MS/MS and were assessed based on peak area ratios of the analyte to IS. The remaining activity (expressed as % of control activity) were calculated; IC50 values of the test compound were determined using SigmaPlot or XLfit with 3- or 4-parameter logistic sigmoidal equation.
In general terms: Liver microsomes are a subcellular fraction often used to study metabolism.

The target of the next data set is T3, CYP 3A4 (Homo sapiens, UniProt P08684).
T3 construct: pooled human liver microsomes (Corning, Xenotech, or other qualified vendors; pooled from multiple donors); tissue Corning, Xenotech, or other qualified vendors; host or cells: pooled human liver microsomes
T3 sequence (P08684 whole entry): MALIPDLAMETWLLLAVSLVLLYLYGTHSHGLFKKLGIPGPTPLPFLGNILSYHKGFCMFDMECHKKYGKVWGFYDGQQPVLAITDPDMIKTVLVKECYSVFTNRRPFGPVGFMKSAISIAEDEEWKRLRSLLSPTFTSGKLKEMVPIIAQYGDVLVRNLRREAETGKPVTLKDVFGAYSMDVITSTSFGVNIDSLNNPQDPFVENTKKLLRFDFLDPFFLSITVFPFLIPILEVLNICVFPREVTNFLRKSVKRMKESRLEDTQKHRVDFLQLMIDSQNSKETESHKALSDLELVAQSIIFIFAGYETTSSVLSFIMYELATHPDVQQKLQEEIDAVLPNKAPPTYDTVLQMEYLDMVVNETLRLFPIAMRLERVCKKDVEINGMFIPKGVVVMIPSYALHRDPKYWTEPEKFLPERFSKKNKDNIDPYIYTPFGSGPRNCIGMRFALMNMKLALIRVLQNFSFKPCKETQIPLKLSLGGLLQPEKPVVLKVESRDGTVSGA
The data set is described as follows: microsomal CYP inhibition, 3A4. Format: in vitro ADME. The following applies: human liver microsomes 0.2 mg/ml, substrate Midazolam; read-out: CYP inhibition (μM) 3A4 (3A4M). How it is done: as §1

Data set [1] in a line: kinetic aqueous solubility in pH 7 citrate buffer. Format: physicochemical. The following applies: kinetic from dmso stock, pH 7 citrate buffer solution, read-out: Kinetic Aq solubility (μM pH 7).
For a further data set, the target named is T4, CYP 2C9 (Homo sapiens, UniProt P11712).
T4 construct: pooled human liver microsomes (Corning, Xenotech, or other qualified vendors; pooled from multiple donors); tissue Corning, Xenotech, or other qualified vendors; host or cells: pooled human liver microsomes
T4 sequence (P11712 whole entry): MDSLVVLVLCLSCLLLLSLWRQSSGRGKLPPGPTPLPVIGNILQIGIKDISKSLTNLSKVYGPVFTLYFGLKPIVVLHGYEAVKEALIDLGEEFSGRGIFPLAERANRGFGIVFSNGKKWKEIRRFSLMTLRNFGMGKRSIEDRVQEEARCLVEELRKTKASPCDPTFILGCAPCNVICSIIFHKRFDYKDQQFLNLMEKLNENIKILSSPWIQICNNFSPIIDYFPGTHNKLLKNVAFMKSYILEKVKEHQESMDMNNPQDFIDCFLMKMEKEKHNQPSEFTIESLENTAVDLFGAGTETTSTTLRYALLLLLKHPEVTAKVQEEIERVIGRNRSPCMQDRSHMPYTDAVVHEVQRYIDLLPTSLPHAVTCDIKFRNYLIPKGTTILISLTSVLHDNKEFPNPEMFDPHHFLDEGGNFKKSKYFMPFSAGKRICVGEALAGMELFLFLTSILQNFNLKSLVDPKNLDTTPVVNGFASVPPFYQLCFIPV
The data set is described as follows: microsomal CYP inhibition, 2C9. To be noted: human liver microsomes 0.2 mg/ml, substrate Diclofenac. The class given is in vitro ADME. How it is done:
as §1

For a further data set, the target named is T5, CYP 1A2 (Homo sapiens, UniProt P05177).
T5 construct: pooled human liver microsomes (Corning, Xenotech, or other qualified vendors; pooled from multiple donors); tissue Corning, Xenotech, or other qualified vendors; host or cells: pooled human liver microsomes
T5 sequence (P05177 1-516): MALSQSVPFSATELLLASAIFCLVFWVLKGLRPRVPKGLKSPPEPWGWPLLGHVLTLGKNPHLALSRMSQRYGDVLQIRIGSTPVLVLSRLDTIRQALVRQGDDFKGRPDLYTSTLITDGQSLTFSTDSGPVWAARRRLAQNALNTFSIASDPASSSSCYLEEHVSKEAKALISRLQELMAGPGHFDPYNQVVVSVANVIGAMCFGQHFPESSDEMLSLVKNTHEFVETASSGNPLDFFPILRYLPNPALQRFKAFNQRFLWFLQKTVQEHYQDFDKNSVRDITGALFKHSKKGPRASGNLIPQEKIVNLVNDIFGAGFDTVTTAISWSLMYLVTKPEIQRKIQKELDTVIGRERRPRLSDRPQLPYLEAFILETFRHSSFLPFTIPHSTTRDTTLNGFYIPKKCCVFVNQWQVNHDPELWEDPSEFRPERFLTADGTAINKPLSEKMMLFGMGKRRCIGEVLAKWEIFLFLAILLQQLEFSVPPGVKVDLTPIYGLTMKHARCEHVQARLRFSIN
As to the kind of experiment: microsomal CYP inhibition, 1A2. Format: in vitro ADME. The following applies: human liver microsomes 0.2 mg/ml, substrate Phenacetin. How it is done:
as §1

A further data set addresses T6, CYP 2C19 (Homo sapiens, UniProt P33261).
T6 construct: pooled human liver microsomes (Corning, Xenotech, or other qualified vendors; pooled from multiple donors); tissue Corning, Xenotech, or other qualified vendors; host or cells: pooled human liver microsomes
The data set is described as follows: microsomal CYP inhibition, 2C19. The class given is in vitro ADME. The following applies: human liver microsomes 0.2 mg/ml, substrate S-Mephenytoin. On the procedure: as §1

The target of another data set is hERG channels (Homo sapiens, UniProt Q12809). The data set is described as follows: hERG test on manual patch-clamp system. The class given is cell-based. The following applies: CHO-K1 cells expressing hERG, whole-cell patch clamp, room temperature. How it is done:
Visual check for precipitation was conducted before testing.

The next data set has as its system Caco-2 Cells. The data set is described as follows: Caco-2 permeability test. The following applies: Caco-2, 2.0 μM, 2 hours, pH 7.40. The class given is in vitro ADME. A general note: Caco-2 cells form a polarised layer with tight junctions and transporters.
Another data set is described as follows: Caco-2 permeability test. The class given is in vitro ADME. To be noted: human, pH 7.4, Caco-2, 2.0 μM, A to B and B to A, pH 7.40, read-out: Caco summary: ER (efflux ratio).
Data set [2] can be described thus: in vitro microsome metabolic stability, human (HLM). Format: in vitro ADME. To be noted: pooled human liver microsomes, pH 7.4; human liver microsomes 0.5 mg/mL, 1 μM compound, NADPH, 37° C.; read-out: HLM (T1/2, min). How it is done:
(§2) Human microsome stability (HLM), mouse microsome stability (MLM), hERG IC50, Caco-2 permeability, CYP inhibition, and pharmacokinetic (PK) properties were determined on selected compounds of the disclosure.
(§3) Pooled liver microsomes (Human and CD-1 mouse) were purchased from Corning or XenoTech LLC and stored at −80° C. freezer before use. NADPH cofactor system—β-Nicotinamide adenine dinucleotide phosphate reduced form, tetrasodium salt, NADPH·4Na(NADPH) (Vendor: Chem-impex international, Cat.No. 00616) was used. Control compounds were Testosterone, Diclofenac, Propafenone.
(§4) Stock solution—Test compound was 10 mM in DMSO (Dimethyl Sulfoxide).
(§5) Working solution—Dilute 5 μL of compound or control from stock solution (10 mM) with 495 μL 100% Acetonitrile (Conc.: 100 μM, 99% ACN, 1% DMSO; final concentration in reaction system: 1 μM, 0.99% ACN, 0.01% DMSO).
(§6) Potassium Phosphate Buffer 100 mM (pH 7.4±0.1)
(§7) NADPH Cofactor: The appropriate amount of NADPH powder was weighed, and diluted into MgCl2 solution (work solution concentration: 10 mM NADPH and 10 mM MgCl2; final concentration in reaction system: 1 mM NADPH and 1 mM MgCl2).
(§8) Liver microsome preparation (0.5 mg/mL): Pipette appropriate volume of microsome (20 mg/mL) to 100 mM buffer solution (Conc.: 0.56 mg/mL, Final concentration in reaction system: 0.5 mg/mL).
(§9) Automatic Workstation was used for all liquid handling and incubation.

Data set [3] in a line: in vitro microsome metabolic stability, mouse (MLM). Format: in vitro ADME. To be noted: pooled CD-1 mouse liver microsomes, pH 7.4; CD-1 mouse liver microsomes 0.5 mg/mL, 1 μM compound, NADPH, 37° C.; read-out: MLM (T1/2, min). On the procedure: as §2, §3, §4, §5, §6, §7, §8, §9

As usually defined, the solubility (kinetic) is solubility judged after dilution from a stock solution rather than from solid.

Converted amounts (≈) assume the structure as drawn. A value given as a limit tells only on which side of the number the result lay.

Chain of hERG channels (Q12809 whole entry): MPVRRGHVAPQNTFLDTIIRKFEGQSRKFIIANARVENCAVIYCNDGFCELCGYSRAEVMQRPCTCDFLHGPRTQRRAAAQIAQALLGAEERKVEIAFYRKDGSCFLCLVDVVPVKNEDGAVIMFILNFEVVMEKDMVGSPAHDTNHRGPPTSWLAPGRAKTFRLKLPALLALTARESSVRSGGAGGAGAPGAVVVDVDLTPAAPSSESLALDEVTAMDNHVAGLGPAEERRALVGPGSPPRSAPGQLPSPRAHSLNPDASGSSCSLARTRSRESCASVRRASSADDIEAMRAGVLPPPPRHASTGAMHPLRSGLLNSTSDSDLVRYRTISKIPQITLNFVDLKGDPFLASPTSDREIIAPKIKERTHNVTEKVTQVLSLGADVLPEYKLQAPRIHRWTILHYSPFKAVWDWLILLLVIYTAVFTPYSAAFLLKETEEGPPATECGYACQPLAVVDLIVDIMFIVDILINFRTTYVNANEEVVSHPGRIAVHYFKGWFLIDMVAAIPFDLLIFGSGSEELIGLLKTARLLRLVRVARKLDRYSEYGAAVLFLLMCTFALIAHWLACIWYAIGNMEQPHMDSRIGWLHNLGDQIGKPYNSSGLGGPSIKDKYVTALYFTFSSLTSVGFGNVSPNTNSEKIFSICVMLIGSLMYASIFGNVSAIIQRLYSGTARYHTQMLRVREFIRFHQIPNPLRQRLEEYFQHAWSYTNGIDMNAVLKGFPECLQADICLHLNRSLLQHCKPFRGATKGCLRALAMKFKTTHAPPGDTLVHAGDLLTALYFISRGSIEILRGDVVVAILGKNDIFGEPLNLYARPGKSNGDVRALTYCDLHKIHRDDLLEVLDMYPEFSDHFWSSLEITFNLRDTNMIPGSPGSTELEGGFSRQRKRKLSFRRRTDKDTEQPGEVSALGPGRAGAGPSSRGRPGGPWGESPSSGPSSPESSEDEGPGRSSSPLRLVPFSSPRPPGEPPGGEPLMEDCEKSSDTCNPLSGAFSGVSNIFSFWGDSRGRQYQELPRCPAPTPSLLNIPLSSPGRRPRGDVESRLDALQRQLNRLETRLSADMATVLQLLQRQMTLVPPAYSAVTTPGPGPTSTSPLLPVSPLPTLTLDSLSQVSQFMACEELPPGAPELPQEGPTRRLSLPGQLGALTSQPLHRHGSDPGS
T2 sequence (P10635 whole entry): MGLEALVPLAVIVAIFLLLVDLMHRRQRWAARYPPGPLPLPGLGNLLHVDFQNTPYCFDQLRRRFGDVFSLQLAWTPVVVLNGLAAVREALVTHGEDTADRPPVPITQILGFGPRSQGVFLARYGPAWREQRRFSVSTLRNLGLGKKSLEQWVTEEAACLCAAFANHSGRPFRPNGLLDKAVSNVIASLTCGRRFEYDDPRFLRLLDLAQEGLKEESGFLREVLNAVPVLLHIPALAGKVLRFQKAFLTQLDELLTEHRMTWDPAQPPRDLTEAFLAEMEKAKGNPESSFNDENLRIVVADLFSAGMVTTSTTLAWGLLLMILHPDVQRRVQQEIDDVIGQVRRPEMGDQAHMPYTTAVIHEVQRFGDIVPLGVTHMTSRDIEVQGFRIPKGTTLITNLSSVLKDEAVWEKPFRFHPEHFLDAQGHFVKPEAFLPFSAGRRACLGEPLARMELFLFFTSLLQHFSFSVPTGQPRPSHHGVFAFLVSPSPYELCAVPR
T6 sequence (P33261 whole entry): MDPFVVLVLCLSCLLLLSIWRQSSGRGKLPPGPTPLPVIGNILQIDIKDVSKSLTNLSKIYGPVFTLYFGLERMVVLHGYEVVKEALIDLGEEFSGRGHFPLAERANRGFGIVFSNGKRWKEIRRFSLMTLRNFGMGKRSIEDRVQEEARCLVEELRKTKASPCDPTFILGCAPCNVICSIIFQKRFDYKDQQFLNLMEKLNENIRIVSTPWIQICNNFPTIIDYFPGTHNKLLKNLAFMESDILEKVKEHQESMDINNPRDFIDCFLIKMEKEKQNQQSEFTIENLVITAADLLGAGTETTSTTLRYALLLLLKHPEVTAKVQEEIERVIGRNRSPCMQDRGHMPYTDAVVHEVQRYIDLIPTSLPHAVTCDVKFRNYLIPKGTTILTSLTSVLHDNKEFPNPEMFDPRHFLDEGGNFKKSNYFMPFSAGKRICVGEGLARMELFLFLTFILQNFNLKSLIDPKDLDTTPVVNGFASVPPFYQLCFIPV
Procedure for Caco-2 Cells: Caco-2 Cells (obtained from ATCC) were seeded onto PET membranes of 96-well Insert Plates and cultured for 21-28 days before being used in the transport assays. The integrity of the monolayer was verified by performing Lucifer yellow rejection assay. The quality of the monolayer was verified by measuring the unidirectional (A to B) permeability of nadolol (low permeability marker), metoprolol (high permeability marker) and bi-directional permeability of digoxin (a P-glycoprotein substrate marker) in duplicate wells. Nadolol and metoprolol were tested at 2.0 μM, and digoxin was tested at 10.0 μM. […]
Dosing solutions were removed and mixed with transport buffer and Stop Solution containing an appropriate internal standard (IS) as T0 samples. […] All samples including T0 samples, donor samples and receiver samples were analyzed using LC/MS/MS. Concentrations of test compounds were expressed as peak area ratio of analytes to IS without a standard curve.
The A to B and B to A apparent permeability coefficients (Papp), % Solution Recovery, and Efflux ratio (ER) were determined.

Regarding `COCC[S@@+]([O-])c1sc2nc(-c3cnc4nn(C)nc4c3)cc(C(C)(C)C)c2c1N` [Compound 29, 4-tert-butyl-2-[(R)-2-methoxyethanesulfinyl]-6-{2-methyl-2H-[1,2,3]triazolo[4,5-b]pyridin-6-yl}thieno[2,3-b]pyridin-3-amine], the IC50 on recombinant 15-PGDH was under 0.0025 µM; against CYP 2D6, 29 µM; at CYP 3A4, 39 µM; against CYP 2C9, 4 µM; at CYP 1A2, over 50 µM; against CYP 2C19, 1 µM. The IC50 on hERG channels was 11 µM. The solubility (kinetic) in data set [1] amounted to 188 µM (≈ 83.6 µg/mL). The “Caco summary: permeability (high/low)” value with Caco-2 Cells is “high”. In the data set “Caco-2 permeability test”, the efflux ratio at 2 h, 2 μM was 1. Moreover, the half-life at 1 μM in data set [2] is 100 min; in data set [3] it was 86 min.
